Test results published in US20130252811A1, “NOVEL HERBICIDE” (priority 2009, published 2013).

Experiments:
[1] = tested on: Echinochloa crus-galli (ECHCG); assay: Flooded Echinochloa crus-galli, visual herbicidal damage (Biological Example 1, Test 125); assay type: in vivo; settings: 14 DAA
Protocol: (§1) Rice seeds, variety IR-64 (an indica type of rice), were sown in seed trays. After 7 days the resulting plants were transplanted as 3 groups of 2 plants, into pots containing a standard sandy loam soil saturated with water replicating swampy conditions. These were grown on for a further 9 days in a glasshouse bay (30/20° C. day/night; 18/6 hours light/dark; 75% humidity). Leptochloa chinensis (LEFCH) and Echinochloa crus-galli (ECHCG) were sown as 2 separate groups of approx 10-20 seeds into pots 13 days prior to application of the test substances, in the same glasshouse conditions as the rice. Therefore, each pot of weeds contained a group of LEFCH and a separate group of ECHCG. All pots of rice and all pots of weeds were flooded to 2-3 cm water depth the day prior to application of the test substances. Growth stages at time of application were as follows: Rice: from 2 leaves on the main stem up to tillering; ECHCG: from 2 leaves on the main stem up to tillering; LEFCH: 2-3 leaves.
(§2) Test solutions were prepared by mixing the appropriate aliquots of the test substances in deionised water to give the desired treatment concentration. Most of the test substances were used as formulated products. Specifically, compound A-4 was applied as the EC050 formulation disclosed in Formulation Example 1 herein (EC=emulsifiable concentrate). Compound A-7 was applied as the EC050 Formulation disclosed in Formulation Example 2 herein. Compound A-9 was applied as the EC050 Formulation disclosed in Formulation Example 3 herein. Pyroxasulfone (a comparator co-herbicide) was applied as the SC050 formulation disclosed in Reference Formulation Example 7 herein (SC=Suspension concentrate). Imazosulfuron (a comparator co-herbicide) was applied as a GR0.25 formulation (GR=granule).
(§3) The test substances which were pure active ingredient (e.g. propyrisulfuron & fenoxasulfone) (labelled as ‘Technical’ in the following results table), were prepared by dissolving in 10.56% Emulsogen EL™ (castor oil ethoxylate, CAS Registry number 61791-12-6), 42.22% N-methylpyrrolidone and 42.22% dipropylene glycol mono-ethyl ether to give a stock solution containing 5% of the test substance and 95% of (Emulsogen EL™, N-methylpyrrolidone and dipropylene glycol mono-ethyl ether).
(§4) Application of the test substances was made by pipetting the required amount of the test solution or the test formulation gently into the flood water of the appropriate pot.
(§5) The test plants were then grown on in the same glasshouse conditions, and watered twice daily keeping the flood water at a depth of 2-3 cm.
(§6) A visual assessment of the % herbicidal damage was made 7 & 14 days after application (DAA), and the results are presented herein as % visual herbicidal damage where 0=no damage to plants and 100=total kill.

[2] = tested on: Leptochloa chinensis (LEFCH); assay: Flooded Leptochloa chinensis, visual herbicidal damage (Biological Example 1, Test 125); assay type: in vivo; settings: 14 DAA
Protocol: as §1, §2, §3, §4, §5, §6

[3] = tested on: Rice IR-64; assay: Flooded transplanted rice, visual herbicidal damage (Biological Example 1, Test 125); assay type: in vivo, variety IR-64 (indica); settings: 14 DAA, co-herbicide alone 10 g/ha
Protocol: as §1
Test solutions were prepared by mixing the appropriate aliquots of the test substances in deionised water to give the desired treatment concentration. Most of the test substances were used as formulated products. Specifically, compound A-4 was applied as the EC050 formulation disclosed in Formulation Example 1 herein (EC=emulsifiable concentrate). […]

[4] = compound of formula (I) 60 g/ha, no co-herbicide, 0=no damage, 100=total kill
[5] = compound of formula (I) 90 g/ha, no co-herbicide
[6] = compound of formula (I) 120 g/ha, no co-herbicide

SMILES | % damage to ECHCG [1, 4] | % damage to ECHCG [1, 5] | % damage to ECHCG [1, 6] | % damage to LEFCH [2, 4] | % damage to LEFCH [2, 5] | % damage to LEFCH [2, 6] | further results
CCOc1cc(Cl)c(CS(=O)(=O)C2=NOC(C)(C)C2)cc1Cl [fenoxasulfone, reference compound] |  |  |  |  |  |  | % damage to ECHCG ([1]; co-herbicide alone 200 g/ha): 65%; % damage to LEFCH ([2]; co-herbicide alone 200 g/ha): 70%
CCc1ccc(-c2ccc(Cl)cc2Cl)cc1C1C(=O)C(C)(C)OC(C)(C)C1=O [compound A-7] | 35% | 55% | 65% | 0% | 5% | 5% | 
CCCc1ccc2nc(Cl)c(S(=O)(=O)NC(=O)Nc3nc(OC)cc(OC)n3)n2n1 [propyrisulfuron, reference compound] |  |  |  |  |  |  | % damage to ECHCG ([1]; co-herbicide alone 80 g/ha): 80%; % damage to LEFCH ([2]; co-herbicide alone 80 g/ha): 0%
CCc1ccc(-c2ccc(Cl)cc2Cl)cc1C1=C(OC(=O)OC)C(C)(C)OC(C)(C)C1=O [compound A-9] | 15% | 40% | 70% | 80% | 80% | 90% | herbicidal activity against LEFCH ([2]; compound alone (EC formulation) at 60, 90 or 120 g/ha): 80-90%
Cn1nc(C(F)(F)F)c(CS(=O)(=O)C2=NOC(C)(C)C2)c1OC(F)F [pyroxasulfone, reference compound] |  |  |  |  |  |  | % damage to Rice IR-64 [3]: 45%; % damage to ECHCG ([1]; co-herbicide alone 10 g/ha): 60%; % damage to LEFCH ([2]; co-herbicide alone 10 g/ha): 70%
CCc1ccc(-c2ccc(Cl)cc2F)cc1C1C(=O)C(C)(C)OC(C)(C)C1=O [compound A-4] | 55% | 85% | 90% | 0% | 0% | 20% | 
COc1cc(OC)nc(NC(=O)NS(=O)(=O)c2c(Cl)nc3ccccn23)n1 [imazosulfuron, reference compound] |  |  |  |  |  |  | % damage to ECHCG ([1]; co-herbicide alone 80 g/ha): 50%; % damage to LEFCH ([2]; co-herbicide alone 80 g/ha): 0%
